What all share (assay): Kinase inhibitor library screening, PrestoBlue cell viability, 1 or 10 μM, 72 h
For data set [1], the system named is IGR37-XP cells (Vemurafenib-resistant). As to conditions: IGR37 XP, 72 h.
Data set [2] has as its system 501Mel-GP cells (Dabrafenib-resistant). Conditions: 501Mel GP, 72 h.
The subject of data set [3] is A375-GP cells (Dabrafenib-resistant). As to conditions: A375 GP, 72 h.
For a further data set, the system named is 501Mel cells (parental). As to conditions: 501Mel Parental, 72 h. The method, boiled down:
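Two concentrations of every kinase inhibitor were tested on each melanoma line and its resistant counterparts, and cell survival was quantified by PrestoBlue against untreated wells.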

A further data set has as its system IGR37 cells (parental). Conditions: IGR37 Parental, 72 h.
In data set [4] the test system is A375-XP cells (Vemurafenib-resistant). Conditions: A375 XP, 72 h.
In data set [5] the test system is IGR37-GP cells (Dabrafenib-resistant). As to conditions: IGR37 GP, 72 h.
The test system of another data set is A375 cells (parental). As to conditions: A375 Parental, 72 h.
Data set [6] relates to 501Mel-XP cells (Vemurafenib-resistant). Conditions: 501Mel XP, 72 h.

As for `CCOc1ccn(-c2ccc(F)cc2)c(=O)c1C(=O)Nc1ccc(Oc2ccnc(N)c2Cl)c(F)c1` [BMS 777607], the “cell viability (kinase inhibitor library screening)” value is 91.2% in [1] (1μΜ); 46.6% in [1] (10μΜ); 53.2% in [2] (10μΜ); 45.4% in data set [3] (10μΜ); 88.2% in the data set with 501Mel cells (parental) (1μΜ); 68.4% in the data set on 501Mel cells (parental) (10μΜ). The “cell viability (kinase inhibitor library screening)” value in the data set with IGR37 cells (parental) (1μΜ) was determined as 97.6%; with IGR37 cells (parental) (10μΜ), 81.6%; in data set [4] (10μΜ), 66.5%; in data set [5] (1μΜ), 87.2%; in data set [5] (10μΜ), 82.2%; in the data set on A375 cells (parental) (10μΜ), 42.4%. For the same compound, the “cell viability (kinase inhibitor library screening)” value with A375 cells (parental) (1μΜ) is on record as 99.9%; in data set [6] (1μΜ), 72.2%; in data set [6] (10μΜ), 37.4%.
Regarding `Nc1nccc(Oc2ccc(NC(=O)c3c[nH]cc(-c4ccc(F)cc4)c3=O)cc2F)c1Cl` [BMS 794833], the “cell viability (kinase inhibitor library screening)” value was determined as 103.7% in [1] (1μΜ); 63.5% in data set [1] (10μΜ); 90.0% in [2] (1μΜ); 70.5% in data set [2] (10μΜ); 85.8% in data set [3] (10μΜ); 95.9% in the data set with 501Mel cells (parental) (1μΜ). For the same compound, the “cell viability (kinase inhibitor library screening)” value is listed as 83.2% with 501Mel cells (parental) (10μΜ); 106.3% with IGR37 cells (parental) (1μΜ); 97.3% with IGR37 cells (parental) (10μΜ); 104.8% in data set [4] (1μΜ); 96.9% in [4] (10μΜ); 94.1% in data set [5] (1μΜ). For the same compound, the “cell viability (kinase inhibitor library screening)” value in data set [5] (10μΜ) is 90.1%; in the data set on A375 cells (parental) (10μΜ) it was 63.8%; in [6] (1μΜ), 91.8%; in data set [6] (10μΜ), 52.9%.
`CCCCOc1c(C(=O)c2c(F)cc(C)cc2F)c[nH]c2nncc1-2` [BMS-265246]: the “cell viability (kinase inhibitor library screening)” value came to 85.9% in data set [1] (1μΜ); 48.1% in [1] (10μΜ); 94.2% in [2] (1μΜ); 52.8% in data set [2] (10μΜ); 93.5% in data set [3] (1μΜ); 40.3% in [3] (10μΜ). Besides, the “cell viability (kinase inhibitor library screening)” value was 92.4% in the data set with 501Mel cells (parental) (1μΜ); 77.7% with 501Mel cells (parental) (10μΜ); 91.7% with IGR37 cells (parental) (1μΜ); 91.8% in the data set with IGR37 cells (parental) (10μΜ); 94.5% in data set [4] (1μΜ); 71.7% in [4] (10μΜ). In addition, the “cell viability (kinase inhibitor library screening)” value in [5] (1μΜ) stood at 90.7%; in data set [5] (10μΜ), 83.4%; in the data set with A375 cells (parental) (10μΜ) it was 49.0%; in the data set with A375 cells (parental) (1μΜ), 91.4%; in [6] (1μΜ), 87.1%; in data set [6] (10μΜ), 32.9%.
As for `Cc1c(NC(=O)OC[C@@H]2COCCN2)cn2ncnc(Nc3ccc4c(cnn4Cc4cccc(F)c4)c3)c12` [BMS-599626 (AC480)], the cell viability, IGR37 XP, 10μΜ in [1] (10μΜ) was determined as 48.2%. Besides, in data set [1] (1μΜ, in %), the “cell viability, IGR37 XP, 1μΜ” value was found to be 96.7. In data set [2] (1μΜ, in %), the “cell viability, 501Mel GP, 1μΜ” value is listed as 106.6. Further, in [2] (10μΜ, in %), the “cell viability, 501Mel GP, 10μΜ” value worked out at 91.5. For the same compound, the “cell viability, A375 GP, 10μΜ” value in [3] (10μΜ, in %) was 84.2. Besides, the “cell viability, 501Mel Parental, 1μΜ” value in the data set with 501Mel cells (parental) (1μΜ, in %) is 99.1. Further, the “cell viability, 501Mel Parental, 10μΜ” value in the data set with 501Mel cells (parental) (10μΜ, in %) was found to be 87.7. For the same compound, in the data set with IGR37 cells (parental) (1μΜ, in %), the “cell viability, IGR37 Parental, 1μΜ” value was found to be 109.0. In addition, the “cell viability, IGR37 Parental, 10μΜ” value with IGR37 cells (parental) (10μΜ, in %) came to 92.5. In addition, the “cell viability, A375 XP, 1μΜ” value in data set [4] (1μΜ, in %) was 107.8. In addition, the “cell viability, A375 XP, 10μΜ” value in [4] (10μΜ, in %) is listed as 91.0. The compound also had a cell viability, IGR37 GP, 10μΜ in data set [5] (10μΜ) of 75%. Also, the “cell viability, IGR37 GP, 1μΜ” value in [5] (1μΜ, in %) came out at 95.5. For the same compound, the “cell viability, A375 Parental, 1μΜ” value in the data set on A375 cells (parental) (1μΜ, in %) amounted to 103.3. For the same compound, the “cell viability, A375 Parental, 10μΜ” value in the data set with A375 cells (parental) (10μΜ, in %) turned out to be 84.6. The “cell viability, 501Mel XP, 1μΜ” value in [6] (1μΜ, in %) amounted to 93.0. The “cell viability, 501Mel XP, 10μΜ” value in data set [6] (10μΜ, in %) is reported as 61.8.
As to `CC(C)c1cnn2c(NCc3ccccc3)cc(NCCCCCCN)nc12.Cl` [BS-181 HCl], the “cell viability (kinase inhibitor library screening)” value was determined as 97.6% in data set [1] (1μΜ); 59.8% in [1] (10μΜ); 108.6% in data set [2] (1μΜ); 87.7% in data set [2] (10μΜ); 105.9% in data set [3] (1μΜ); 84.9% in data set [3] (10μΜ). Further, the “cell viability (kinase inhibitor library screening)” value turned out to be 97.6% with 501Mel cells (parental) (1μΜ); 87.4% with 501Mel cells (parental) (10μΜ); 98.6% in the data set with IGR37 cells (parental) (1μΜ); 112.1% in data set [4] (1μΜ); 92.4% in data set [4] (10μΜ); 92.7% in data set [5] (1μΜ). Moreover, the “cell viability (kinase inhibitor library screening)” value in data set [5] (10μΜ) stood at 81.4%; in the data set with A375 cells (parental) (10μΜ), 91.6%; in data set [6] (1μΜ), 98.4%; in [6] (10μΜ), 55.9%.
Consider `O=C(NCCCNc1nc(Nc2cccc(NC(=O)N3CCCC3)c2)ncc1I)c1cccs1` [BX-795], for which the Cell viability in kinase inhibitor library screening, IGR37 XP, 10μΜ in data set [1] (10μΜ) is 7.6%. In addition, the “Cell viability in kinase inhibitor library screening, IGR37 XP, 1μΜ” value in data set [1] (1μΜ, in %) stood at 93.9. In addition, the “Cell viability in kinase inhibitor library screening, 501Mel GP, 1μΜ” value in data set [2] (1μΜ, in %) is given as 97.1. For the same compound, the “Cell viability in kinase inhibitor library screening, 501Mel GP, 10μΜ” value in [2] (10μΜ, in %) is 64.9. For the same compound, in data set [3] (1μΜ), the “Cell viability in kinase inhibitor library screening, A375 GP, 1μΜ” value was 86.6. The “Cell viability in kinase inhibitor library screening, A375 GP, 10μΜ” value in [3] (10μΜ) is 43.6. Further, in the data set with 501Mel cells (parental) (1μΜ, in %), the “Cell viability in kinase inhibitor library screening, 501Mel Parental, 1μΜ” value is 92.8. Also, the “Cell viability in kinase inhibitor library screening, 501Mel Parental, 10μΜ” value with 501Mel cells (parental) (10μΜ, in %) was 82.7. In the data set with IGR37 cells (parental) (1μΜ, in %), the “Cell viability in kinase inhibitor library screening, IGR37 Parental, 1μΜ” value came out at 97.9. Further, the “Cell viability in kinase inhibitor library screening, IGR37 Parental, 10μΜ” value with IGR37 cells (parental) (10μΜ, in %) was 56.4. Moreover, in [4] (1μΜ), the “Cell viability in kinase inhibitor library screening, A375 XP, 1μΜ” value turned out to be 93.4. Moreover, in data set [4] (10μΜ), the “Cell viability in kinase inhibitor library screening, A375 XP, 10μΜ” value is reported as 48.3. In addition, in data set [5] (10μΜ), the Cell viability in kinase inhibitor library screening, IGR37 GP, 10μΜ worked out at 15.1%. Also, the “Cell viability in kinase inhibitor library screening, IGR37 GP, 1μΜ” value in [5] (1μΜ, in %) came out at 85.8. Moreover, in the data set on A375 cells (parental) (10μΜ), the “Cell viability in kinase inhibitor library screening, A375 Parental, 10μΜ” value is given as 38.1. The “Cell viability in kinase inhibitor library screening, A375 Parental, 1μΜ” value in the data set on A375 cells (parental) (1μΜ) worked out at 87.7. Moreover, in [6] (1μΜ, in %), the “Cell viability in kinase inhibitor library screening, 501Mel XP, 1μΜ” value worked out at 89.4. The “Cell viability in kinase inhibitor library screening, 501Mel XP, 10μΜ” value in data set [6] (10μΜ, in %) was found to be 39.9.
`O=C(Nc1cccc(Nc2ncc(Br)c(NCCc3cnc[nH]3)n2)c1)N1CCCC1` [BX-912] yielded a Cell viability in kinase inhibitor library screening, IGR37 XP, 10μΜ in data set [1] (10μΜ) of 16.7%. For the same compound, the “Cell viability in kinase inhibitor library screening, IGR37 XP, 1μΜ” value in data set [1] (1μΜ, in %) was determined as 94.7. Also, the “Cell viability in kinase inhibitor library screening, 501Mel GP, 1μΜ” value in data set [2] (1μΜ, in %) is 99.2. Also, the “Cell viability in kinase inhibitor library screening, 501Mel GP, 10μΜ” value in [2] (10μΜ, in %) is recorded as 59.6. Further, in data set [3] (1μΜ), the “Cell viability in kinase inhibitor library screening, A375 GP, 1μΜ” value came out at 87.6. Also, the “Cell viability in kinase inhibitor library screening, A375 GP, 10μΜ” value in data set [3] (10μΜ) worked out at 38.0. Further, the “Cell viability in kinase inhibitor library screening, 501Mel Parental, 1μΜ” value in the data set on 501Mel cells (parental) (1μΜ, in %) was 93.6. The “Cell viability in kinase inhibitor library screening, 501Mel Parental, 10μΜ” value with 501Mel cells (parental) (10μΜ, in %) turned out to be 63.6. Moreover, in the data set on IGR37 cells (parental) (1μΜ, in %), the “Cell viability in kinase inhibitor library screening, IGR37 Parental, 1μΜ” value is 91.9. Further, in the data set with IGR37 cells (parental) (10μΜ, in %), the “Cell viability in kinase inhibitor library screening, IGR37 Parental, 10μΜ” value is 65.1. Moreover, the “Cell viability in kinase inhibitor library screening, A375 XP, 1μΜ” value in data set [4] (1μΜ) is recorded as 88.9. Also, the “Cell viability in kinase inhibitor library screening, A375 XP, 10μΜ” value in data set [4] (10μΜ) is 36.6. The Cell viability in kinase inhibitor library screening, IGR37 GP, 10μΜ in [5] (10μΜ) was 55.1%. Further, in the data set on A375 cells (parental) (10μΜ), the “Cell viability in kinase inhibitor library screening, A375 Parental, 10μΜ” value is 34.9. In the data set with A375 cells (parental) (1μΜ), the “Cell viability in kinase inhibitor library screening, A375 Parental, 1μΜ” value was 92.0. In addition, the “Cell viability in kinase inhibitor library screening, 501Mel XP, 1μΜ” value in data set [6] (1μΜ, in %) was found to be 89.5. Further, the “Cell viability in kinase inhibitor library screening, 501Mel XP, 10μΜ” value in [6] (10μΜ, in %) was found to be 48.6.

These data come from paper PMC6364417, “Kinase inhibitor library screening identifies synergistic drug combinations effective in sensitive and resistant melanoma cells” (Journal of Experimental & Clinical Cancer Research : CR, 2019).
